Here are results for one compound from paper PMC5688156, “The natural product carolacton inhibits folate-dependent C1 metabolism by targeting FolD/MTHFD” (Nature Communications, 2017).

The target in the test is T1, ecFolD K54N (Escherichia coli, UniProt P24186, K54N).
T1 construct: His-tag (TEV-cleavable, vector pHis-TEV); made in house; host or cells: E. coli BL21 (DE3)
Put plainly: SPR binding to ecFolD K54N. Also on record: species or system E. coli. As to conditions: K54N mutant. On the procedure:
All surface plasmon resonance (SPR) experiments described in this study were performed on a Biacore X100 system. Different FolDs with or without His-tag were coupled on CM5 sensor chips (GE Healthcare) by the amine coupling method using a kit from GE Healthcare Life Sciences (Freiburg, Germany). A pH scouting process was performed before protein immobilization to test the most appropriate buffer and the protein concentration for protein coupling. Finally, 20 μg/mL of ecFolD in 10 mM maleate buffer (pH 6.8), 30 μg/mL of ecFolD Q98H in 10 mM maleate buffer (pH 6.3), 40 μg/mL of ecFolD K54N in 10 mM maleate buffer (pH 5.8), 20 μg/mL of spFolD in 10 mM maleate buffer (pH 6.0) and 15 μg/mL of MTHFD2 (His-tag cleaved) in 10 mM maleate buffer (pH 6.8) were used for coupling. In the protein immobilization procedure, the contact time was calculated based on the pH scouting results to achieve ~3000–5000 relative resonance units (RU). The buffer used in the SPR assays was 1× HBS-P buffer (10 mM HEPES pH 7.4, 150 mM NaCl, 0.05% Tween 20). The 1 mM stock solution of carolacton was prepared in 1× HBS-P buffer and diluted to different concentration ranges by two-fold serial dilution. In the SPR assay, the association time was 180 s and the dissociation time was 600 s. Data analysis was performed using the Biacore evaluation software. […]

For the compound `CO[C@H](CC(=O)O)[C@@H](C)C(=O)[C@H](C)/C=C(\C)[C@H]1OC(=O)[C@H](O)[C@H](O)/C=C/[C@H](C)CCC[C@@H]1C` [carolacton], the “binding by SPR” value is reported as “does not bind”.
